From patent US6461997B1, “Triazole sulfones having herbicidal activity” (Monsanto Technology LLC, priority 1999, dated 2002)

Assays:
[1] = system: IPOSS (annual morningglory); assay: Pre-emergence herbicidal activity, warm season; format: in vivo, Ipomoea spp.; conditions: Ipomoea, pre-emergence application, read-out: Percent inhibition, weed IPOSS
Protocol: (§1) Tables 5 to 8 summarize results of tests conducted as described below to determine the pre-emergence herbicidal activity, in the form of a GR80 value, of illustrative compounds of this invention. […] Compounds of the invention were typically applied at rates of 300, 100, 30, and 10 g/ha. Where herbicidal activity was evident but 80% inhibition was not achieved at the highest rate tested, an asterisk (*) is shown in the following tables.
(§2) The pre-emergence tests were conducted by the following procedure. Topsoil was sieved to pass through a 1.27 cm screen. Fertilizer was added to the topsoil and the mixture was then sterilized by heating. The topsoil mixture was placed in a pot and compacted to a depth of 1.0 to 1.25 cm from the top of the pot. Seeds of each of several monocotyledonous and dicotyledonous annual plant species were placed on top of the soil. Additional soil was subsequently placed over the seeds to level-fill the pot. A known amount of each test compound dissolved or suspended in an appropriate organic solvent was diluted with a 50:50 mix of acetone and water and applied to the surface of the soil. After treatment the plants were placed in a greenhouse where they received 0.64 cm of overhead irrigation. All subsequent watering consisted of a light overhead mist and/or subirrigation as needed for germination and growth. Tables 5 and 6 below relate to warm season plant species which were placed after pre-emergence treatment in a greenhouse with a 30/21° C. day/night temperature regime. Tables 7 and 8 below relates to cool season plant species placed after pre-emergence treatment in a greenhouse or growth chamber with an 18/13° C. day/night temperature regime.
(§3) Approximately 14 days after planting and treating, the plants were observed and herbicidal efficacy recorded as percent inhibition by comparison with untreated plants.
(§4) The plant species usually regarded as weeds which were utilized in the tests are identified in the tables below according to the following legend, in which “d” indicates a dicotyledonous species and “m” a monocotyledonous species. All monocotyledonous species included in the tests herein are grasses.

[2] = system: KCHSC (kochia); assay: Post-emergence herbicidal activity, cool season; format: in vivo, Kochia scoparia; conditions: abraded plants sprayed; GR80 = lowest tested rate (300, 100, 30, 10 g/ha) with 80% or greater inhibition; approx. 14 days after treatment; 18/13° C.
Protocol: (§5) In another set of tests, the post-emergence activity of compounds of this invention was evaluated on the cool season species listed above. The following procedure was used.
(§6) A pre-prepared topsoil mixture (described above) was placed in a pot and compacted to a depth of 1.0 to 1.25 cm from the top of the pot. Seeds of each of several monocotyledonous and dicotyledonous annual plant species were placed on top of the soil. The seeds were covered with a mixture of 50% topsoil and 50% Rediearth™ in sufficient quantity to level-fill the pots. The pots were then placed on a greenhouse bench and subirrigated as needed.
(§7) When plants growing from the seeds had emerged and reached a suitable growth stage for post-emergence treatment, typically 9 to 14 days after planting, above-ground parts of the plants were subjected to a pre-treatment involving abrasion to create greater opportunity for foliar uptake of subsequently applied compounds. Abrasion was performed using garnet 200w particles applied with a Sears Craftsman hand-held sandblaster operated at approximately 850 kPa (50 psig) pressure. […]
(§8) After treatment the plants were placed in a greenhouse with an 18/13° C. day/night temperature regime and were subsequently watered as needed for growth. Approximately 14 days after treatment, the plants were observed and herbicidal efficacy recorded as percent inhibition by comparison with control plants. […]

[3] = system: SEBEX; assay: Pre-plant incorporated (PPI) herbicidal activity, warm season; format: in vivo; conditions: PPI application, read-out: Percent inhibition SEBEX
Protocol: (§9) Additional pre-emergence and PPI tests were conducted by the procedures described above, on warm and cool season weed species in the presence of crop species, to assess herbicidal selectivity. Crop species included in warm season tests were corn (Zea mays, ZEAMX), rice (Oryza sativa, ORYSA) and soybean (Glycine max, GLYMX). Crop species included in cool season tests were wheat (Triticum aestivum, TRZAW), barley (Hordeunm vulgare, HORVX) and oilseed rape (Brassica napus, BRSNS).

[4] = system: corn (ZEAMX); assay: Selectivity test, pre-emergence, warm season crop; format: in vivo; conditions: Zea mays, pre-emergence application, read-out: Percent inhibition, crop ZEAMX
Protocol: as §2, §3, §9
(§10) Tables 15 and 16 relate to pre-emergence and PPI tests respectively on warm season species. Table 17 relates to pre-emergence tests on cool season species.

[5] = system: soybean (GLYMX); assay: Selectivity test, pre-emergence, warm season crop; format: in vivo; conditions: Glycine max, pre-emergence application, read-out: Percent inhibition, crop GLYMX
Protocol: as §2, §3, §9, §10

[6] = system: rice (ORYSA); assay: Selectivity test, pre-emergence, warm season crop; format: in vivo; conditions: Oryza sativa, pre-emergence application, read-out: Percent inhibition, crop ORYSA
Protocol: as §2, §3, §9, §10

[7] = system: SEBEX; assay: Pre-emergence herbicidal activity, warm season (selectivity test, Table 15); format: in vivo; conditions: pre-emergence application, read-out: Percent inhibition, weed SEBEX
Protocol: as §2, §3, §9, §10

[8] = system: VERPE (creeping speedwell); assay: Post-emergence herbicidal activity, cool season; format: in vivo, Veronica persicaria; conditions: abraded plants sprayed; GR80 = lowest tested rate (300, 100, 30, 10 g/ha) with 80% or greater inhibition; approx. 14 days after treatment; 18/13° C.
Protocol: as §5, §6, §7, §8

[9] = system: XANST (cocklebur); assay: Pre-emergence herbicidal activity, warm season; format: in vivo; conditions: Xanthium strumarium, pre-emergence application, read-out: Percent inhibition, weed XANST
Protocol: as §1, §2, §3, §4

[10] = system: SASKR (russian thistle); assay: Post-emergence herbicidal activity, cool season; format: in vivo, Salsola kali; conditions: abraded plants sprayed; GR80 = lowest tested rate (300, 100, 30, 10 g/ha) with 80% or greater inhibition; approx. 14 days after treatment; 18/13° C.
Protocol: as §5, §6, §7, §8

SMILES | inhibition at 10 g/ha [1] [%] | inhibition at 30 g/ha [1] [%] | inhibition at 100 g/ha [1] [%] | inhibition at 300 g/ha [1] [%] | inhibition at 900 g/ha [1] [%] | Post-emergence activity (GR80) KCHSC [2] [g/ha] | inhibition at 10 g/ha [3] [%] | inhibition at 30 g/ha [3] [%] | inhibition at 300 g/ha [3] [%] | inhibition at 900 g/ha [3] [%] | inhibition at 10 g/ha [4] [%] | inhibition at 30 g/ha [4] [%] | inhibition at 100 g/ha [4] [%] | inhibition at 300 g/ha [4] [%] | inhibition at 900 g/ha [4] [%] | inhibition at 10 g/ha [5] [%] | inhibition at 30 g/ha [5] [%] | inhibition at 100 g/ha [5] [%] | inhibition at 900 g/ha [5] [%] | inhibition at 10 g/ha [6] [%] | also measured
CCN(CC)C(=O)n1cnc(S(=O)(=O)C(F)(F)Br)n1 [Example 1, 3-(bromodifluoromethylsulfonyl)-1-(N,N-diethylcarbamoyl)-1,2,4-triazole] | 0 | 0 | 0 | 0 | 0 | 100 | 0 | 0 | 0 | 20 | 0 | 0 | 0 | 0 | 10 | 0 | 0 | 0 | 0 | 0 | inhibition at 100 g/ha ([3]; 100 g/ha): 0%; inhibition at 30 g/ha [6]: 0%; inhibition at 100 g/ha [6]: 0%; inhibition at 900 g/ha [6]: 10%; inhibition at 10 g/ha [7]: 0%; inhibition at 30 g/ha [7]: 0%; inhibition at 100 g/ha [7]: 0%; inhibition at 300 g/ha [7]: 0%; inhibition at 900 g/ha [7]: 0%; Post-emergence activity (GR80) VERPE [8]: 300 g/ha; inhibition at 10 g/ha [9]: 0%; inhibition at 30 g/ha [9]: 0%; melting point: 74 to 75 °C
CCN(CC)C(=O)n1cnc(S(=O)(=O)C(F)F)n1 [Example 15, 1-(N,N-diethylcarbamoyl)-3-(difluoromethylsulfonyl)-1,2,4-triazole] | 0 | 0 | 0 | 0 | 0 | 100 | 0 | 0 | 0 | 50 | 0 | 0 | 0 | 0 | 0 | 0 | 0 | 0 | 10 | 0 | Post-emergence activity (GR80) SASKR [10]: 100 g/ha; inhibition at 300 g/ha ([5]; 300 g/ha): 0%; inhibition at 30 g/ha [6]: 0%; inhibition at 100 g/ha [6]: 0%; inhibition at 300 g/ha ([6]; 300 g/ha): 0%; inhibition at 900 g/ha [6]: 0%; inhibition at 10 g/ha [7]: 0%; inhibition at 30 g/ha [7]: 0%; inhibition at 100 g/ha [7]: 0%; inhibition at 300 g/ha [7]: 0%; inhibition at 900 g/ha [7]: 35%; inhibition at 10 g/ha [9]: 0%; inhibition at 30 g/ha [9]: 0%; inhibition at 100 g/ha ([9]; 100 g/ha): 0%; inhibition at 300 g/ha ([9]; 300 g/ha): 0%; melting point: 58 to 59 °C
